Where two headings read alike, the source gives them in different places.
Target: T1, mu opiate receptor (MOR) (Rattus norvegicus, UniProt P33535)
T1 construct: from tissue; host or cells: striatum (membrane preparation)
Format: biochemical
Conditions: for Concentration of FLNA-Binding Compound as Agonist 0.1 μM / Concentration of FLNA-Binding Compound as Agonist 1 μM / Concentration of FLNA-Binding Compound as Agonist 1 μM + BFNA: [35S]GTPγS binding to Gαo in striatal membranes; for Concentration of FLNA-Binding Compound as Agonist 0.1 μM: compound 0.1 μM; for Concentration of FLNA-Binding Compound as Agonist 1 μM: compound 1 μM; for Concentration of FLNA-Binding Compound as Agonist 1 μM + BFNA: compound 1 μM plus 1 μM β-funaltrexamine (MOR antagonist)

[1] = 0.1 μM compound, striatal membranes, Series C-2
[2] = 1 μM compound + 1 μM β-FNA (selective MOR antagonist), Series C-2
[3] = 1 μM compound, striatal membranes, Series C-2

T1 sequence (P33535 whole entry): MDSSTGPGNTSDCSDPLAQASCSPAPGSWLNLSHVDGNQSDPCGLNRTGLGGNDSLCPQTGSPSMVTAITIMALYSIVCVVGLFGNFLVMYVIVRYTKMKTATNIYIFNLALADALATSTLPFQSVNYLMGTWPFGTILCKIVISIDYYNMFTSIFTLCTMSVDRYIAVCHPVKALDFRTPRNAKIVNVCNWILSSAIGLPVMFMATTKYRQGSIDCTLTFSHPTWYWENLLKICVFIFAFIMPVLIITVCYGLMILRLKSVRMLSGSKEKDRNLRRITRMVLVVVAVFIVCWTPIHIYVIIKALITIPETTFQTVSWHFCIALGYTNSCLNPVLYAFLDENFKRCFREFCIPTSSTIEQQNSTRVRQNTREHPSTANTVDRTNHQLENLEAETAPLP

Compound | % DAMGO (0.1 μM) [%] | % DAMGO (1 μM) [%] | % DAMGO + BFNA [%] | Concentration of FLNA-Binding Compound as Agonist 0.1 μM [%] | Concentration of FLNA-Binding Compound as Agonist 1 μM [%] | Concentration of FLNA-Binding Compound as Agonist 1 μM + BFNA [%] | [35S]GTPγS binding, FLNA-Binding Compound as Agonist at 0.1 μM [1] [%] | [35S]GTPγS binding, FLNA-Binding Compound as Agonist at 1 μM + BFNA [2] [%] | [35S]GTPγS binding, FLNA-Binding Compound as Agonist at 1 μM [3] [%] | [35S]GTPγS binding, FLNA-Binding Compound as Agonist at 0.1 μM [%] | [35S]GTPγS binding, FLNA-Binding Compound as Agonist at 1 μM [%] | [35S]GTPγS binding, FLNA-Binding Compound as Agonist at 1 μM + BFNA [%]
O=C(c1ccc([N+](=O)[O-])cc1)N1CCC2(CC1)OCCN2C(=O)c1ccc([N+](=O)[O-])cc1 [Compound C0032] | 92.8 | 87.3 | 248.2 | 145.4 | 202.0 | 80.9 | – | – | – | – | – | –
C=CCN1CCC2(CC1)OCCN2S(=O)(=O)c1ccc(OC)cc1 [Compound C0091M] | 118.1 | 108.5 | 367.3 | – | – | – | 207.9 | 80.8 | 274.4 | – | – | –
CS(=O)(=O)c1ccc(S(=O)(=O)N2CCOC23CCNCC3)cc1 [Compound C0116M] | 136.6 | 122.0 | 313.4 | – | – | – | – | – | – | 258.4 | 302.8 | 152.0
O=S(=O)(c1cccs1)N1CCC2(CC1)OCCN2S(=O)(=O)c1cccs1 [Compound C0141M] | 109.9 | 105.8 | 121.9 | 161.5 | 213.9 | 47.9 | – | – | – | – | – | –
COc1ccc(S(=O)(=O)N2CCOC23CCCNC3)cc1 (stereo not drawn) [Compound C0145M-3] | 112.2 | 88.7 | 95.3 | – | – | – | 193.0 | 87.0 | 289.2 | – | – | –
COc1ccc(NC(=O)N2CCC3(CC2)OCCN3C(=O)Nc2ccc(OC)cc2)cc1 [Compound C0151M] | 201.6 | 122.0 | 233.1 | 346.8 | 397.6 | 212.8 | – | – | – | – | – | –
COc1ccc(S(=O)(=O)N2CCC3(OCCN3S(=O)(=O)c3ccc(OC)cc3)C3CCCCC32)cc1 (stereo not drawn) [Compound C0144M] | 108.3 | 90.8 | 137.9 | 186.3 | 295.9 | 125.9 | – | – | – | – | – | –
COc1cc(CC(=O)CC2c3c(cc4c(c3OC)OCO4)CC[N+]2(C)C)cc(OC)c1OC (stereo not drawn) [Compound B0008] | 84.0 | 101.9 | 70.0 | 148.3 | 264.1 | 46.0 | – | – | – | – | – | –
CC(=O)N1CCSC12CCN(S(=O)(=O)c1ccc([N+](=O)[O-])cc1)CC2 [Compound C0050] | 76.1 | 54.8 | 134.1 | – | – | – | 110.3 | 59.0 | 127.6 | – | – | –
COc1ccc(CC(=O)CC2c3c(cc4c(c3OC)OCO4)CC[N+]2(C)C)c(OC)c1 (stereo not drawn) [Compound B0029] | 89.4 | 77.0 | 40.1 | 171.9 | 210.3 | 17.6 | – | – | – | – | – | –
CC(=O)c1ccc(S(=O)(=O)N2CCOC23CCN(C)CC3)cc1 [Compound C0093M] | 81.3 | 96.4 | 127.5 | – | – | – | 140.0 | 44.0 | 211.8 | – | – | –
Cc1ccc(C(C)C)c(OCC(O)CN2CC(C)OC(C)C2)c1 (stereo not drawn) [Compound A0028] | 81.3 | 73.8 | 443.7 | 143.6 | 187.7 | 116.7 | – | – | – | – | – | –
COc1c2c(cc3c1C(CC(=O)Cc1ccccc1C)[N+](C)(C)CC3)OCO2 (stereo not drawn) [Compound B0031] | 109.6 | 99.6 | 65.6 | 210.8 | 272.0 | 28.8 | – | – | – | – | – | –
COc1ccc(OCC(O)CN2CCc3ccccc3C2)cc1 (stereo not drawn) [Compound A0053] | 46.5 | 47.5 | 46.2 | 78.5 | 118.2 | 15.1 | – | – | – | – | – | –
CC(=O)c1ccc(S(=O)(=O)N2CCC3(CC2)NC(=O)CN3Cc2ccccc2)cc1 [Compound C0085M] | 105.5 | 78.4 | 112.6 | 211.6 | 246.2 | 43.7 | – | – | – | – | – | –
COc1ccc(C(=O)CC2c3c(cc4c(c3OC)OCO4)CC[N+]2(C)C)cc1 (stereo not drawn) [Compound B0024] | 93.2 | 116.7 | 58.2 | 155.8 | 285.9 | 20.2 | – | – | – | – | – | –
Nc1ccc(C(=O)N2CCC3(CC2)OCCN3S(=O)(=O)c2ccc(N)cc2)cc1 [Compound C0023] | 89.5 | 87.6 | 44.5 | 153.2 | 233.7 | 23.2 | – | – | – | – | – | –
CC1CCC(C(C)C)C(OCC(O)CN2CCN(C)CC2)C1 (stereo not drawn) [Compound A0009] | 39.8 | 48.7 | 142.9 | 70.2 | 126.4 | 93.9 | – | – | – | – | – | –
CC1CN(CC(O)COc2ccccc2Br)CC(C)O1 (stereo not drawn) [Compound A0043] | 93.4 | 81.1 | 120.6 | 183.3 | 223.8 | 89.1 | – | – | – | – | – | –
CC1CCC(C(C)C)C(OCC(O)CN2CCCCCCC2)C1 (stereo not drawn) [Compound A0014] | 83.2 | 67.5 | 214.3 | 147.0 | 174.9 | 140.8 | – | – | – | – | – | –
CC1CCN(CC(O)COC2CC(C)CCC2C(C)C)CC1 (stereo not drawn) [Compound A0006] | 113.8 | 82.9 | 68.7 | 170.0 | 190.9 | 18.2 | – | – | – | – | – | –
CC1CCC(C(C)C)C(OCC(O)CN2CCOCC2)C1 (stereo not drawn) [Compound A0004] | 55.2 | 55.6 | 130.9 | 97.4 | 144.2 | 86.0 | – | – | – | – | – | –
COc1ccc(CCC(=O)CC2c3c(cc4c(c3OC)OCO4)CC[N+]2(C)C)c(OC)c1 (stereo not drawn) [Compound B0043] | 42.4 | 97.6 | 632.7 | 74.8 | 248.1 | 166.4 | – | – | – | – | – | –

— US10760052B2, “Method of inhibiting tau phosphorylation” (priority 2012, dated 2020)
